For assay [1], the target named is T1, Thyrotropin-releasing hormone receptor (Mus musculus, UniProt P21761).
T1 sequence (P21761 whole entry): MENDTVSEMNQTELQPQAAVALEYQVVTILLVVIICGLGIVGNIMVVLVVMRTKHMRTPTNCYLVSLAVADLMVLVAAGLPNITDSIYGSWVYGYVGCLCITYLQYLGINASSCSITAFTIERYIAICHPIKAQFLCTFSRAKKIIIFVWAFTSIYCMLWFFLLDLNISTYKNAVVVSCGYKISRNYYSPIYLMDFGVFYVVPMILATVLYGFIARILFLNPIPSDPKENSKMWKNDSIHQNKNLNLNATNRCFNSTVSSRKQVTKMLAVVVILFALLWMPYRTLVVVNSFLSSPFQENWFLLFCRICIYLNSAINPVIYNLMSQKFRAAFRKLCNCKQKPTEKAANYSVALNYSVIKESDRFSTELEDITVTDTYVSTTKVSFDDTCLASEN
The assay can be described thus: Binding affinity against TRH-R receptor in AtT-20 mouse pituitary tumor cells.

For assay [2], the target named is T1, Thyrotropin-releasing hormone receptor. The assay can be described thus: Effective concentration required to activate TRH-R receptor in AtT-20 mouse pituitary tumor cells.

Molecules are shown by their SMILES.

The molecule `Cn1cnc(C[C@H](NC(=O)[C@@H]2CCC(=O)N2)C(=O)N2CCC[C@H]2C(N)=O)c1` showed a Ki in assay [1] of 1.2 nM.

With `NC(=O)[C@@H]1CCCN1C(=O)[C@H](Cc1ccccc1)N1CC[C@]2(CCC(=O)N2)C1=O`, in assay [1], the Ki worked out at 4400 nM. In assay [2], this molecule returned a concentration for a half-maximal effect (EC50) of 290 nM.

`NC(=O)[C@@H]1CCCN1C(=O)[C@H](Cc1cnc[nH]1)NC(=O)[C@@H]1CCC(=O)N1` [PROTIRELIN] gave a concentration for a half-maximal effect (EC50) in assay [2] of 0.68 nM.
